Test results as given in patent publication US9062028B2, “Bicyclic nitrogen containing heteroaryl TGR5 receptor modulators” (Bristol-Myers Squibb Company, priority 2011, dated 2015).

Target: T1, recombinant human TGR5 (Homo sapiens, UniProt Q8TDU6)
T1 construct: expressed in transfected cells
T1 sequence (Q8TDU6 1-330): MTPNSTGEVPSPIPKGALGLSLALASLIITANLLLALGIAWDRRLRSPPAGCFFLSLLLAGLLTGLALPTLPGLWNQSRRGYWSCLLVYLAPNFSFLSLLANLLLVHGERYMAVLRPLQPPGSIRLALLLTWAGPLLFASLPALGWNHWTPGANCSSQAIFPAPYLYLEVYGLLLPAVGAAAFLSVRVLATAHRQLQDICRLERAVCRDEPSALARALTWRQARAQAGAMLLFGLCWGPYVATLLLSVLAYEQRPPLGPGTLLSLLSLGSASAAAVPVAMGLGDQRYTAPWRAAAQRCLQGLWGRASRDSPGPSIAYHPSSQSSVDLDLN
Assay: cAMP assay (cAMP accumulation, HTRF) in CHOK1 cells stably expressing TGR5
Type: cell-based
Settings: CHOK1 cells stably expressing human TGR5, 30 minutes at RT, 1% DMSO
Summary of the method: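 CHOK1 cells stably expressing TGR5 (text also calls it chimeric human/mouse), 0.4-0.5×10^6 cells/mL in PBS with Ca/Mg and 0.1 mM IBMX, compound 30 min at RT, 1% DMSO. cAMP by HTRF 665/620 interpolated to a standard curve; EC50 from 4-parameter fit as half-maximal increase.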

Row | SMILES | EC50 [nM]
1 | Cc1cccc(OCCCC(=O)N2CCCc3c(-c4cnn(Cc5cccc(C(=O)N[C@@H](Cc6ccccc6)C(=O)O)c5)c4)cccc32)c1C [Example 848, (S)-2-(3-((4-(1-(4-(2,3-Dimethylphenoxy)butanoyl)-1,2,3,4-tetrahydroquinolin-5-yl)-1H-pyrazol-1-yl)methyl)benzamido)-3-phenylpropanoic acid] | 196
2 | Cc1cccc(OCCCC(=O)N2CCCc3c(-c4cnn(Cc5cccc(C(=O)N6CCC(C(=O)O)C6)c5)c4)cccc32)c1C (stereo not drawn) [Example 859, 1-(3-((4-(1-(4-(2,3-Dimethylphenoxy)butanoyl)-1,2,3,4-tetrahydroquinolin-5-yl)-1H-pyrazol-1-yl)methyl)benzoyl)pyrrolidine-3-carboxylic acid] | 1360
3 | Cc1cccc(OCCCC(=O)N2CCCc3c(-c4cnn(Cc5cccc(C(=O)N[C@@H](C)C(=O)O)c5)c4)cccc32)c1C [Example 864, (S)-2-(3-((4-(1-(4-(2,3-Dimethylphenoxy)butanoyl)-1,2,3,4-tetrahydroquinolin-5-yl)-1H-pyrazol-1-yl)methyl)benzamido)propanoic acid] | 193
4 | Cc1cccc(OCCCC(=O)N2C[C@@H]3C[C@@H]3c3c(-c4cnn(Cc5cccc(C(=O)NCC(=O)O)c5)c4)cccc32)c1C [Example 878, 2-(3-((4-((1aR,7bS)-3-(4-(2,3-Dimethylphenoxy)butanoyl)-1a,2,3,7b-tetrahydro-1H-cyclopropa[c]quinolin-7-yl)-1H-pyrazol-1-yl)methyl)benzamido)acetic acid] | 42
5 | Cc1cccc(OCCCC(=O)N2C[C@@H]3C[C@@H]3c3c(-c4cnn(Cc5cccc(C(=O)N(CC(=O)O)CC(=O)O)c5)c4)cccc32)c1C [Example 882, 2,2′-(3-((4-((1aR,7bS)-3-(4-(2,3-Dimethylphenoxy)butanoyl)-1a,2,3,7b-tetrahydro-1H-cyclopropa[c]quinolin-7-yl)-1H-pyrazol-1-yl)methyl)benzoylazanediyl) diacetic acid] | 1340

Next, values leading:

Row | EC50 [nM] | SMILES
6 | 184 | Cc1cccc(OCCCC(=O)N2C[C@@H]3C[C@@H]3c3c(-c4cnn(Cc5cccc(C(=O)NC[C@@H](N)C(=O)O)c5)c4)cccc32)c1C [Example 887, (R)-2-Amino-3-(3-((4-((1aR,7bS )-3-(4-(2,3-dimethylphenoxy)butanoyl)-1a,2,3,7b-tetrahydro-1H-cyclopropa[c]quinolin-7-yl)-1H-pyrazol-1-yl)methyl)benzamido)propanoic acid]
7 | 26 | Cc1cccc(OCCCC(=O)N2C[C@@H]3C[C@@H]3c3c(-c4cnn(Cc5cccc(C(=O)N[C@H]6CCOC6=O)c5)c4)cccc32)c1C [Example 891, 3-((4-((1aR,7bS)-3-(4-(2,3-Dimethylphenoxy)butanoyl)-1a,2,3,7b-tetrahydro-1H-cyclopropa[c]quinolin-7-yl)-1H-pyrazol-1-yl)methyl)-N-((S)-2-oxotetrahydrofuran-3-yl)benzamide]
8 | 198 | CCOC(=O)CN(CC(=O)OCC)C(=O)c1cccc(Cn2cc(-c3cccc4c3[C@H]3C[C@H]3CN4C(=O)CCCOc3cccc(Cl)c3C)cn2)c1 [Example 896, Diethyl 2,2′-(3-((4-((1aR,7bS)-3-(4-(3-chloro-2-methylphenoxy)butanoyl)-1a,2,3,7b-tetrahydro-1H-cyclopropa[c]quinolin-7-yl)-1H-pyrazol-1-yl)methyl)benzoylazanediyl)diacetate]
9 | 32 | CCOC(=O)CNC(=O)Nc1cccc(Cn2cc(-c3cccc4c3[C@H]3C[C@H]3CN4C(=O)CCCOc3cccc(Cl)c3C)cn2)c1 [Example 914, Ethyl 2-(3-(3-((4-((1aR,7bS)-3-(4-(3-chloro-2-methylphenoxy)butanoyl)-1a,2,3,7b-tetrahydro-1H-cyclopropa[c]quinolin-7-yl)-1H-pyrazol-1-yl)methyl)phenyl)ureido)acetate]
